Experimental data reported in patent publication US7163935B2, “Scorpionate-like pendant macrocyclic ligands, complexes and compositions thereof, and methods of using same” (The United States of America as represented by the …, priority 2002, dated 2007).

Experiment: Complexation (formation) kinetics with Y(III), competing reaction with Arsenazo III, absorbance at 652 nm
Assay type: physicochemical
Details: pH 4, room temperature
Description: Formation kinetics of Y(III) complexes of 1, 2, and DOTA (Macrocyclics) was measured by monitoring the absorption at 652 nm. To 2 mL of 1.6 mM YCl3 (from atomic absorption standard solution, Aldrich) and 5 mM Arsenazo III (Sigma) in 0.15 M NH4OAc (pH 4.0, metal-free), 20 μL of 10 mM ligand solution were added into a cell. After mixing (<5 sec), absorption of the solution at 652 nm (absorption wavelength of Y(III)-Arsenazo III) (Kline et al., Bioconjugate Chem., 1991, 2,26–31) was immediately followed over time at room temperature using an HP 8452A Diode Array Spectrophotometer, which was pre-blanked with a 5 mM Arsernazo III solution. Without any ligand added, the absorption was 0.089 for 1.6 mM YCl3 in 5 mM Arsernazo III solution at 652 nm.
The complexation kinetics of novel chelates 1, 2, and DOTA with Y(III) was qualitatively investigated using a competing reaction with Arsenazo III according to a modification of a previously reported procedure (Kodama et al., Inorg. Chem., 1991, 30, 1270–1273). The absorbance (A652) for the Y(III)-Arsenazo III complex was measured in the absence and in the presence of the chelates (1, 2, and DOTA) over 1 h. The results are shown in FIG. 3, which is a line graph of absorbance at 652 nm vs. reaction time (s), in which curve “a” represents Y-2, curve “b” represents Y-DOTA, and curve “c” represents Y-1. […] Complexation of Y(III) by 2 is assumed to occur to some degree, but the formed complex might undergo decomplexation due to an absence of complex stability, ultimately leading to an unfavorable equilibrium situation.

[1] = Arsenazo III competition, A652 over 1 h

SMILES	complex formation with Y(III) (rate) [1]	rate of complex formation with Y(III) compared to DOTA (time scan measurements)	degree of complexation of Y(III) [1]
Cl.Cl.Cl.Cl.O=C(O)CN1CCN(CCN(CC(=O)O)CC(=O)O)CCN(CC(=O)O)CC1 [ligand 1, {[2-(4,7-bis-carboxymethyl)-[1,4,7]triazacyclononan-1-yl-ethyl]-carbonylmethyl-amino]-acetic acid tetrahydrochloride]	quite rapid and is essentially complete very shortly after the starting point of measurement	much greater rate than DOTA	–
Cl.Cl.Cl.Cl.O=C(O)CN1CCN(CCCN(CC(=O)O)CC(=O)O)CCN(CC(=O)O)CC1 [ligand 2, {[3-(4,7-bis-carboxymethyl)-[1,4,7]triazacyclononan-1-yl-propyl]-carbonyl-methylamino]-acetic acid tetrahydrochloride]	very slow	–	slight and remained unchanged over the period of measurement
O=C(O)CN1CCN(CC(=O)O)CCN(CC(=O)O)CCN(CC(=O)O)CC1 [DOTA, 1,4,7,10-tetraazacyclododecane-N,N′,N″,N′″-tetraacetic acid, reference compound]	sluggish	–	–
